Assay results from ChEMBL document CHEMBL5131533, “Indazole and Benzoisoxazole Compounds as Dihydroorotate Dehydrogenase Inhibitors for Treating Acute Myelogenous Leukemia” (ACS Med Chem Lett, 2022).

Experiments:
[1] = biological target: Dihydroorotate dehydrogenase (quinone), mitochondrial (Homo sapiens, UniProt Q02127); assay: Inhibition of human DHODH using dihydroorotate as substrate and Q6 as coenzyme by DCIP dye based spectrophotometry analysis
MOLM-13 = assay: Antiproliferative activity against human MOLM-13 cells incubated for 72 hrs by CellTiter-Glo based multilabel reader analysis; type: functional, cell-based; conditions: MOLM-13, 72 h

Dihydroorotate dehydrogenase (quinone), mitochondrial, sequence (Q02127 whole entry): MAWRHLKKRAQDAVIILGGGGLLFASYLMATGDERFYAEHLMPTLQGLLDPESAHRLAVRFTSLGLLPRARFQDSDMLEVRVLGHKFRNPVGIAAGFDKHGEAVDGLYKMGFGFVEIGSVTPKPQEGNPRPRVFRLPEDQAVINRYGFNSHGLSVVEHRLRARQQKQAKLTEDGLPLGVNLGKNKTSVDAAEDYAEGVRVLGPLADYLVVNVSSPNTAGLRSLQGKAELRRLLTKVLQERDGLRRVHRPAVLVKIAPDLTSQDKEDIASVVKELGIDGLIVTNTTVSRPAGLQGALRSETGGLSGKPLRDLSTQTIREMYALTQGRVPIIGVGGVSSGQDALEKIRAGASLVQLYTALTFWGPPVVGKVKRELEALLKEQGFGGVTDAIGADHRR

| IC50 [1] | IC50 (MOLM-13) | Compound |
| --- | --- | --- |
| 2 nM | 5.7 nM | CCn1c(CO)nn(-c2cc(O[C@@H](C)C(F)(F)F)c3c(Nc4c(C)ccnc4Cl)nn(C)c3c2F)c1=O |
| 3 nM | 1.2 nM | CCn1c(CO)nn(-c2cc(OC(C)C(F)(F)F)c3c(Nc4c(F)cccc4Cl)nn(C)c3c2F)c1=O (configuration not stated) |
| 8 nM | 3 nM | CCn1c(CO)nn(-c2cc(OC(C)C(F)(F)F)c3c(Nc4c(F)cccc4Cl)nn(C)c3c2)c1=O (configuration not stated) |
| 1 nM | 0.1 nM | Cc1ccnc(Cl)c1Nc1nn(C)c2c(F)c(-c3cn(C)c(C(C)(C)O)n3)cc(O[C@@H](C)C(F)(F)F)c12 |
| 2 nM | 0.7 nM | CCn1c(CO)nn(-c2cc(O[C@@H](C)C(F)(F)F)c3c(Nc4c(F)cccc4Cl)nn(C)c3c2F)c1=O |
| 2 nM | 0.7 nM | CCn1c(CO)nn(-c2cc(O[C@@H](C)C(F)(F)F)c3c(Nc4c(F)cccc4Cl)noc3c2F)c1=O |
